Earlier results as cited in US11357752B2, “Carolacton and derivatives thereof for use in the treatment of cell proliferation disorders” (Helmholtz-Zentrum für Infektionsforschung GmbH, priority 2017, dated 2022).

Test system: MTHFD1 or MTHFD2
Conditions: prior-art inhibitor, poor activity; cited from earlier work

Nc1nc2c(c(=O)[nH]1)N1C(=O)N(c3ccc(C(=O)N[C@@H](CCC(=O)O)C(=O)O)cc3)CC1CN2 (stereo partly shown) [LY345899]
IC50: 128 µM
